# Source: US7863478B2, “UV filters” (Merck Patent GmbH, priority 2004, dated 2011)
# Legend:
# [1] = UV absorption (UV-VIS spectra in 2-propanol, 1 mg/100 ml); type: physicochemical; parameters: UV absorbance at λmax (1 mg/100 ml): unit not given here; conditions: 1 mg/100 ml; for UV absorbance at λmax (1 mg/100 ml): value in brackets after λmax in the synthesis example
# Protocol: FIG. 1: UV absorption spectra of 1-hydroxy-3-[(E)-3-(4-methoxyphenyl)-2-propenoyloxy]-2-oxopropane (Example 1a) and 1-hydroxy-3-(2-cyano-3,3-diphenylacryloyloxy)-2-oxopropane (Example 1b) (in each case measured in 2-propanol at a concentration of 1 mg/100 ml)
# FIG. 2: UV absorption spectra of 3-[4-(3-hydroxy-2-oxopropoxymethyl)benzylidene]-4,7,7-trimethylbicyclo[2.2.1]heptan-2-one (Example 9), N-(2,3-dihydroxypropyl)-(E)-3-(4-methoxyphenyl)acrylamide (Example 10a) and N-(2,3-dihydroxypropyl)-N-methyl-(E)-3-(4-methoxyphenyl)acrylamide (Example 10b) (in each case measured in 2-propanol at a concentration of 1 mg/100 ml).
SMILES,UV-VIS λmax [1] [nm],UV absorbance at λmax (1 mg/100 ml) [1],melting point [°C]
"COc1ccc(/C=C/C(=O)N(C)CC(O)CO)cc1 (stereo not drawn) [Example 10b, N-(2,3-dihydroxypropyl)-N-methyl-(E)-3-(4-methoxyphenyl)acrylamide]",301.0,0.934,81 to 83
"COc1ccc(/C=C/C(=O)NCC(O)CO)cc1 (stereo not drawn) [Example 10a, N-(2,3-dihydroxypropyl)-(E)-3-(4-methoxyphenyl)acrylamide]",298.0,0.940,104 to 106
"COc1ccc(/C=C/C(=O)NCC(=O)CO)cc1 [Example 20, N-(3-hydroxy-2-oxopropyl)-(E)-3-(4-methoxyphenyl)acrylamide]",294.0,0.941,160 to 162
CCCCC(CC)COc1ccc(/C=C/C(=O)OCC(=O)COC(=O)/C=C/c2ccc(OCC(CC)CCCC)cc2)cc1 (stereo not drawn) [Example 23a],301.0,0.947,77 to 79
"CN(C)c1ccc(C(=O)OCC(=O)CO)cc1 [Example 3, 3-Hydroxy-2-oxopropyl 4-dimethylaminobenzoate]",311.0,1.213,129 to 131
"COc1ccc(/C=C/C(=O)NCC(O)CO[Si](C)(C)C(C)(C)C)cc1 (stereo not drawn) [Example 12, N-[3-(tert-butyldimethylsilyloxy)-2-hydroxypropyl]-(E)-3-(4-methoxyphenyl)acrylamide]",291.0,0.481,107 to 109
"N#CC(C(=O)OCC(=O)COC(=O)C(C#N)=C(c1ccccc1)c1ccccc1)=C(c1ccccc1)c1ccccc1 [Example 23b, 1,3-Bis-(2-cyano-3,3-diphenylacryloyloxy)-2-oxopropane]",304.0,0.031,209
CN(C)c1ccc(C(=O)OCC(=O)CO[Si](C)(C)C(C)(C)C)cc1 [Example 2],299.0,0.67,91 to 92
"CN(C)c1ccc(C(=O)NCC(O)CO)cc1 (stereo not drawn) [Example 10d, N-(2,3-dihydroxypropyl)-4-dimethylaminobenzamide]",301.0,0.947,152 to 153
"COc1ccc(/C=C/C(=O)NCC(=O)CO[Si](C)(C)C(C)(C)C)cc1 [Example 17, N-[3-(tert-butyldimethylsilyloxy)-2-oxopropyl]-(E)-3-(4-methoxyphenyl)acrylamide]",300.0,0.843,151 to 152
"COc1ccc(/C=C/C(=O)OCC(=O)CO)cc1 [Example 1a, 1-Hydroxy-3-[(E)-3-(4-methoxyphenyl)-2-propenoyloxy]-2-oxopropane]",301.0,0.947,172 to 174
"CN(C)c1ccc(C(=O)NCC(O)CO[Si](C)(C)C(C)(C)C)cc1 (stereo not drawn) [Example 15, N-[3-(tert-butyldimethylsilyloxy)-2-hydroxypropyl]-4-dimethylaminobenzamide]",301.0,0.64,127 to 128
"COc1ccc(/C=C/C(=O)OCC(=O)COC(=O)/C=C/c2ccc(OC)cc2)cc1 [Example 23, 1,3-Bis-[(E)-3-(4-methoxyphenyl)-2-propenoyloxy]-2-oxopropane]",307.0,1.140,146 to 148
